pIC50: −log10 of the molar value.
How the values were obtained:
[1] = molecular target: T1, wild type AXL (wtAXL) receptor tyrosine kinase (Homo sapiens, UniProt P30530); experiment: NIH-3T3-AXL cellular kinase assay (pY-AXL-ELISA); type: cell-based; details: NIH-3T3-AXL (clone 22) cells, serum depleted, compounds 1 h; Table Ia
T1 construct: WtAXL cDNA was cloned into vector pLXSN(ESK) and transfected into Phoenix E packaging cells; expressed in transfected cells; host or cells: NIH3T3 N7 (mouse fibroblasts), retrovirally infected, clone 22
T1 sequence (P30530 26-894): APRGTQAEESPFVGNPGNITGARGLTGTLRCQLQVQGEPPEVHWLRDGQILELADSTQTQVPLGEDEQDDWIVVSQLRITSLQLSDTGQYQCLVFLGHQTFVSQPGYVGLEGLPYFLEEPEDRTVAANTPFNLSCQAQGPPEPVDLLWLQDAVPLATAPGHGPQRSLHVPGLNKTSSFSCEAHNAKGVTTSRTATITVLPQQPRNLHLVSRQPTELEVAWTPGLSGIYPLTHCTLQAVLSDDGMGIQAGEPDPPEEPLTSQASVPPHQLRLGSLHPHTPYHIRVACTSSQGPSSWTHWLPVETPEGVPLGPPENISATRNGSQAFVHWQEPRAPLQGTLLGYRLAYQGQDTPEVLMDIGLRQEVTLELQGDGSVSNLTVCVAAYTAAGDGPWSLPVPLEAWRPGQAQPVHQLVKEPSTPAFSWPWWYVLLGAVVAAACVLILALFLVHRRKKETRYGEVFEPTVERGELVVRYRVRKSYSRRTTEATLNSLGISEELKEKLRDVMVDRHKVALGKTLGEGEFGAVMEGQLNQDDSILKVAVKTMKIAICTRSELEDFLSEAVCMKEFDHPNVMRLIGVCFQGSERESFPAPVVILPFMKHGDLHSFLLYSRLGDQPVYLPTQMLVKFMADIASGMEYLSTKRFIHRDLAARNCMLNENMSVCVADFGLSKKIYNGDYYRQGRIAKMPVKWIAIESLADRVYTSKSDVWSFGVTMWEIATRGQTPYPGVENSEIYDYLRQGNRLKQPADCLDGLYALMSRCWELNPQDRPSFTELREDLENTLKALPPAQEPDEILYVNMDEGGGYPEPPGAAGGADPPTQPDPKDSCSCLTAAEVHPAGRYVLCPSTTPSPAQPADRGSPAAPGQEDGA
Protocol: WtAXL cDNA was cloned into vector pLXSN(ESK) and transfected into Phoenix E packaging cells. The viral supernatant was collected and used to infect target cells NIH3T3 N7. Monoclonal NIH3T3-AXL cell lines stably expressing wtAXL were generated by selecting retrovirally infected cells in medium containing puromycin (2 μg/ml) and subsequent clonal separation.
Serial dilutions of compounds were added, and the cells were further incubated for 1 h. Cells were washed with PBS and lysed on ice in 500 μl lysis buffer (50 mM HEPES (pH 7.5), 150 mM NaCl, 1 mM EGTA, 10% Glycerol, 1% Triton X-100, 100 mM NaF, 10 mM Na4P2O7.10H2O, 1 mM Na3VO4, 1 mM phenylmethylsulfonyl fluoride, and […]) for 15 min. The cell lysate were used for phosphotyrosine AXL enzyme-linked immunosorbant assay (pY-AXL-ELISA). […] Subsequently 96-well plates were blocked with PBS-0.05% Tween®20+10% FBS for 4 h at 37° C. Plates were washed 5 times with PBS-0.05% Tween®20 and 95 μl of lysate was transferred per well for incubation overnight at 4° C. Plates were washed 5 times with PBS-0.05% Tween®20 (Sigma, Steinheim, Germany). For detection of phosphorylated tyrosine we used homemade biotynilated 4G10-antibody (0.5 μg/ml) in PBS-0.05% Tween®20+10% FBS (100 μl/well) and incubated the 96-well plate for 2 h at room temperature. The anti-phosphotyrosine mouse monoclonal antibody 4G10 was biotynilated with Sulfo-NHS®-Biotin according to the suppliers protocol (Pierce, Rockford, Ill., USA) and purified by Mirco Bio-Spin 6 Chromatograpy Columns (BIO RAD Laboratories, Inc., Hercules, Calif., USA) using PBS as diluent. Plates were washed 5 times with PBS-0.05% Tween®20. For biding to biotin Alkaline Phosphatase Conjugated Strepavidin SA110 (Millipore, Billerica, Mass., USA) (1:4000) was used in PBS-0.05% Tween20+10% FBS (100 μl/well) and incubated for 30 min at room temperature. Plates were washed 5 times with PBS-0.05% Tween20. For fluorimetric detection of alkaline phosphatase AttoPhos Substrate Set (Roche diagnostics GmbH, Mannheim, Germany) was used (100 μl/well). The fluorimetric signal was quantified after 90 min at 430/560 nm wavelength using a TECAN Ultra Evolution plate reader (Tecan Deutschland GmbH, Crailsheim, Germany).

Hs578T [2] = experiment: Cell vitality assay (ATP assay, CellTiter-Glo); type: cell-based; details: Homo sapiens, Hs-578T; HS578T cell line, 72 h; Table Ib; read-out: IC50 ATP-Assay HS578T after 72 h
How it was run: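 Steps: seed 1000 cells per well; add compound (0.195–12.5 μM, 7 points) or DMSO; incubate 72 h; equilibrate to room temperature ~30 min; add reagent, shake 2 min, stand 10 min; read luminescence. IC50 relative to DMSO-control ATP.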

Hs578T [3] = experiment: Wound healing migration assay; type: cell-based; details: Homo sapiens, Hs-578T; HS578T cell line; Table Ib
How it was run: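 Cells seeded at 150000/24 well, grown to monolayer overnight, scratched with a pipette tip, then treated with compound at 12.5, 6.25 or 3.125 μM versus DMSO. Stopped by crystal violet fixation at 48-72 h once control wounds closed; IC50 taken as 50% wound size between t0 and t48 or t72.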

Hs578T [4] = experiment: Matrigel outgrowth assay/branching assay; type: cell-based; details: Homo sapiens, Hs-578T; HS578T cell line; Table Ib; read-out: Total branching inhibition in Matrigel HS578T
How it was run: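 Read-out: microscopic images of invasive branching structures at 48 h, 72 h and 96 h. Cells sat on a 3 mg/ml Matrigel layer (set 1 h, 37° C) with compound at 3.125, 1.56 and 0.78 μM or DMSO. A concentration counts as positive only with complete branching inhibition.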

SMILES | pIC50 [1] | pIC50 (Hs578T [3]) | melting point | pIC50 (Hs578T [2]) | pIC50 (Hs578T [4])
COc1cc2c(Oc3ccc(Cl)c(NS(=O)(=O)c4c(F)cccc4F)c3)ccnc2cc1OCCCN1CCC(C)CC1 [Example 194, N-(2-Chloro-5-{6-methoxy-7-[3-(4-methyl-piperidin-1-yl)-propoxy]-quinolin-4-yloxy}-phenyl)-2,6-difluoro-benzenesulfonamide] | 5.52 to 6.30 | 4.30 to 4.90 | 222 to 226 °C | 4.30 to 4.90 | 4.60 to 5.00
COc1cc2c(Oc3ccc(NS(=O)(=O)c4c(Cl)cccc4Cl)cc3C)ccnc2cc1OCCCN1CCC(C)CC1 [Example 176, 2,6-Dichloro-N-(4-{6-methoxy-7-[3-(4-methyl-piperidin-1-yl)-propoxy]-quinolin-4-yloxy}-3-methyl-phenyl)-benzenesulfonamide] | 5.52 to 6.30 | ≥ 4.90 | 209 to 210 °C | ≥ 4.90 | ≥ 5.00
COc1cc2c(Oc3ccc(Cl)c(NS(=O)(=O)c4cc(F)ccc4F)c3)ccnc2cc1OCCCN1CCC(C)CC1 [Example 193, N-(2-Chloro-5-{6-methoxy-7-[3-(4-methyl-piperidin-1-yl)-propoxy]-quinolin-4-yloxy}-phenyl)-2,5-difluoro-benzenesulfonamide] | 5.52 to 6.30 | ≥ 4.90 | 206 to 208 °C | 4.30 to 4.90 | 4.60 to 5.00
COc1cc2c(Oc3cccc(NS(=O)(=O)c4cc(Cl)ccc4Cl)c3)ccnc2cc1OCCCN1CCN(C)CC1 [Example 127, 2,5-Dichloro-N-(3-{6-methoxy-7-[3-(4-methyl-piperazin-1-yl)-propoxy]-quinolin-4-yloxy}-phenyl)-benzenesulfonamide] | 5.52 to 6.30 | ≥ 4.90 | 111 to 113 °C | ≥ 4.90 | ≥ 5.00
COc1cc2c(Oc3ccc(Cl)c(NS(=O)(=O)c4cc(Cl)ccc4Cl)c3)ccnc2cc1OCCCN1CCC(C)CC1 [Example 197, 2,5-Dichloro-N-(2-chloro-5-{6-methoxy-7-[3-(4-methyl-piperidin-1-yl)-propoxy]-quinolin-4-yloxy}-phenyl)-benzenesulfonamide] | 5.52 to 6.30 | 4.30 to 4.90 | 223 to 224 °C | 4.30 to 4.90 | 4.60 to 5.00
COc1ccc2nccc(Oc3ccc(NS(=O)(=O)c4cc(F)ccc4F)cc3F)c2c1 [Example 199, 2,5-Difluoro-N-[3-fluoro-4-(6-methoxy-quinolin-4-yloxy)-phenyl]-benzenesulfonamide] | 5.52 to 6.30 | 4.30 to 4.90 | 249 to 250 °C | 4.30 to 4.90 | 4.60 to 5.00
COc1cc2c(Oc3cccc(NS(=O)(=O)c4cc(Cl)sc4Cl)c3)ccnc2cc1OCCCN1CCN(C)CC1 [Example 134, 2,5-Dichloro-thiophene-3-sulfonic acid (3-{6-methoxy-7-[3-(4-methyl-piperazin-1-yl)-propoxy]-quinolin-4-yloxy}-phenyl)-amide] | 5.52 to 6.30 | ≥ 4.90 | 177 to 178 °C | ≥ 4.90 | ≥ 5.00
COc1cc2c(Oc3ccc(NS(=O)(=O)c4cc(Cl)ccc4Cl)cc3C)ccnc2cc1OCCCN1CCC(C)CC1 [Example 175, 2,5-Dichloro-N-(4-{6-methoxy-7-[3-(4-methyl-piperidin-1-yl)-propoxy]-quinolin-4-yloxy}-3-methyl-phenyl)-benzenesulfonamide] | 5.52 to 6.30 | ≥ 4.90 | 187 to 188 °C | ≥ 4.90 | ≥ 5.00

Now from value to molecule, other results behind:

pIC50 [1] | pIC50 (Hs578T [3]) | melting point | SMILES | pIC50 (Hs578T [2]) | pIC50 (Hs578T [4])
> 6.30 | ≥ 4.90 | 126 to 128 °C | COc1cc2c(Oc3ccc(NS(=O)(=O)c4cc(Cl)cc(Cl)c4)cc3F)ccnc2cc1OCCCN1CCCC(C)C1 (centres unmarked) [Example 53, 3,5-Dichloro-N-(3-fluoro-4-{6-methoxy-7-[3-(3-methyl-piperidin-1-yl)-propoxy]-quinolin-4-yloxy}-phenyl)-benzenesulfonamide] | ≥ 4.90 | 4.60 to 5.00
> 6.30 | ≥ 4.90 | 99 to 100 °C | COc1cc2c(Oc3ccc(NS(=O)(=O)c4ccccc4C)cc3F)ccnc2cc1OCCCN1CCCC(C)C1 (centres unmarked) [Example 44, N-(3-Fluoro-4-{6-methoxy-7-[3-(3-methyl-piperidin-1-yl)-propoxy]-quinolin-4-yloxy}-phenyl)-2-methyl-benzenesulfonamide] | ≥ 4.90 | ≥ 5.00
> 6.30 | ≥ 4.90 | 127 to 129 °C | COc1cc2c(Oc3ccc(NS(=O)(=O)c4cc(Cl)ccc4Cl)cc3F)ccnc2cc1OCCCN1CCCC(C)C1 (centres unmarked) [Example 50, 2,5-Dichloro-N-(3-fluoro-4-{6-methoxy-7-[3-(3-methyl-piperidin1-yl)-propoxy]-quinolin-4-yloxy}-phenyl)-benzenesulfonamide] | ≥ 4.90 | ≥ 5.00
> 6.30 | ≥ 4.90 | 130 to 132 °C | COc1cc2c(Oc3ccc(NS(=O)(=O)c4ccc(Cl)s4)cc3F)ccnc2cc1OCCCN(C)C [Example 182, 5-Chloro-thiophene-2-sulfonic acid {4-[7-(3-dimethylamino-propoxy)-6-methoxy-quinolin-4-yloxy]-3-fluoro-phenyl}-amide] | ≥ 4.90 | 4.60 to 5.00
> 6.30 | ≥ 4.90 | 144 to 145 °C | COc1cc2c(Oc3ccc(NS(=O)(=O)c4cc(Cl)ccc4Cl)cc3Cl)ccnc2cc1OCCCN1CCN(C)CC1 [Example 124, 2,5-Dichloro-N-(3-chloro-4-{6-methoxy-7-[3-(4-methyl-piperazin-1-yl)-propoxy]-quinolin-4-yloxy}-phenyl)-benzenesulfonamide] | ≥ 4.90 | ≥ 5.00

— US9169241B2, “Quinolinyloxyphenylsulfonamides” (Max-Planck-Gesellschaft Zur Forderung der Wissenschaften …, priority 2009, dated 2015)
